Test results reported in article PMC12866179, “Oxidized MIF is an Alzheimer’s disease drug target relaying external risk factors to tau pathology” (Cell Reports Medicine, 2025).
Read-outs that look alike come from different tables or passages of the source.

Tests used:
[1] = tested on: pox viruses; details: cited from earlier work
[2] = tested on: tau phosphorylation; experiment: Tau assay (immunoblot of phospho-tau) in SH-SY5Y-tau-P301S cells; type: cell-based, human; details: for tau phosphorylation at Ser202 and Thr205 (AT8): absence of virus, ISO-1 up to 100 μM; for effect on tau phosphorylation (AT8) in MIF-knockdown cells: SH-SY5Y-tau-P301S-MIF-knockdown cells; for potency relative to PAV-802 in inhibiting tau phosphorylation: in vitro assay
Protocol: For the analysis of compound effects on tau phosphorylation 4x10^5 SH-SY5Y tau-P301S cells were seeded on 24-well plates. At the next day the cells were treated with compounds diluted in DMSO. Final concentration of DMSO was 0.2%. After an incubation at 37°C for 48h the cells were washed twice with PBS and then lysed in PBS/1% NP40 (Applichem) including the cOmplete protease inhibitor cocktail 2 (Roche) and phosphatase inhibitor cocktail (Sigma). The protein concentration of the samples was determined with the DC Protein Assay (Bio-Rad).
After the protein concentration of cell lysates and homogenates had been determined using the DC Protein Assay Kit (Bio-Rad), 20 μg of each sample were dissolved in NuPAGE LDS Sample buffer (including 2% β-mercaptoethanol), boiled at 100°C for 5 min and then separated on NuPAGE Novex 4–12% Bis-Tris midi gels (Invitrogen) using NuPAGE MES SDS Running buffer (Invitrogen). Proteins were then transferred to a 0.2 μm nitrocellulose membrane (Amersham) in 24 mM Tris/192 mM glycine/20% MeOH at 400 mA for 2h using a tank blot system (Bio-Rad). In order to detect any blotting artifacts, the proteins on the membranes were visualized with Ponceau S (Sigma). The membranes were destained with PBS and then blocked with PBS/5% nonfat milk (Oxoid) for 1h at RT. Incubations with primary antibodies (diluted 1:1,000) in PBS-T were carried out overnight at 4°C. Then the membranes were washed three times with PBS-T for 10 min and afterward incubated with fluorescent secondary antibodies (IR Dye 680 or 800: Li-COR Biosciences.) diluted 1:20,000 in PBS-T for 1h at RT. Following three washing steps with PBS-T for 10 min each, the membranes were scanned using an LI-COR Odyssey CLX. Signal intensities were calculated using the Image Studio Version 2.1 software (LI-COR Biosciences). Blots were reused for staining with additional primary antibodies following the same procedure.

[3] = MTT assay, Vero cells; type: cell-based; details: for CC50 at 24 h: African green monkey
Protocol: For viability analysis 4x10^4 Vero or 8x10^4 SH-SY5Y-tau-P301S cells were plated in a 96-well plate and incubated at 37°C overnight. Then the compounds diluted in DMSO were added to the cells. The final concentration of DMSO was 1%. The cells were then incubated for 24h (Vero) or 48h (SH-SY5Y). Afterward 20 μL of a Thiazolyl Blue Tetrazolium Bromide (MTT, Sigma) solution (5 mg/mL in PBS) was added to the cells and incubated for 4h allowing viable cells to reduce the yellow MTT into blue formazan metabolites. Following aspiration of the medium, the formazan was resuspended in 200 μL isopropanol/40 mM HCl and incubated for 30 min at RT. The diluted formazan was spectrometrically analyzed using a Tecan Safire Spectrometer at 560 nm and background at 670 nm was subtracted.

[4] = molecular target: T1, CUTA (Homo sapiens, UniProt O60888); experiment: Drug resin affinity chromatography (DRAC), CUTA; type: binding; details: SH-SY5Y-tau-P301S lysates
T1 construct: endogenous in cells; host or cells: SH-SY5Y-tau-P301S cell lysate
T1 sequence (O60888 33-179): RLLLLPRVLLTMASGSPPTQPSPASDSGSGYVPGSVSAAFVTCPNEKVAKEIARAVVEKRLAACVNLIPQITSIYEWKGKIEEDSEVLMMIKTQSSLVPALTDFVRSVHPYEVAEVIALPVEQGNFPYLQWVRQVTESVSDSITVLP
Protocol: (§1) For drug resin affinity chromatography (DRAC), supernatant of cell lysates or brain extracts were supplemented with 1 mM of ribonucleoside triphosphates (ATP, GTP, CTP, UTP; NEB), 10 mM creatine phosphate (Sigma) and 10 μL/mL of a 5 mg/mL stock solution of creatine kinase (Sigma). The samples were then loaded onto 20 μL of compound-coupled resin that were equilibrated with PBB-buffer (plus supplements). After one hour of incubation at 26°C, the beads were washed with PBB (100x bed volume). Bound proteins were then eluted either with 200 μM PAV-645 (pig brain) or 100 μM free compound (human brain samples; cell lysates) in the same buffer used as competitor solution or for stripping 1% SDS or 8M urea (cell lysates) for 1h. All elutions were kept frozen until further analysis.

[5] = tested on: HSV-1; experiment: In-cell ELISA for antiviral (HSV-1) activity in Vero cells; type: cell-based, HSV-1 KOS strain; details: for IC50: Human alphaherpesvirus 1, Vero; for potency relative to PAV-802 in inhibiting HSV-1 replication: in vitro assay
Protocol: Antiviral activity of the compounds was measured by in-cell ELISA that was adapted from Fabiani et al.[90] […] In parallel cells were infected with serial dilutions of HSV-1 to generate a standard curve. […] Following blocking with 5% BSA in PBS/0.05% Tween 20 (Sigma, PBS-T) for 60 min the cells were incubated with 50 μL of anti-HSV-1-gC antibody (abcam) diluted 1 to 10,000 in PBS-T over night at 4°C. The following day, cells were washed four times with PBS-T and then incubated with Hrp-conjugated goat anti-mouse antibody (Thermo Fisher Scientific) at a dilution of 1:10,000 in PBS-T for 60 min. Then, cells were washed four times with PBS-T before adding 50 μL of the substrate cocktail (OptEIA, BD). The reaction was stopped after 30 min by adding 50 μL of 2N H2SO4 and signals were spectrometrically analyzed using a Tecan Safire at 450 nm.

[6] = in vitro; type: in vitro ADME
[7] = molecular target: T2, MIF (Homo sapiens, UniProt P14174); experiment: Drug resin affinity chromatography (DRAC), MIF; type: binding; details: SH-SY5Y-tau-P301S lysates
T2 construct: endogenous in cells; host or cells: SH-SY5Y-tau-P301S cell lysate
T2 sequence (P14174 2-115): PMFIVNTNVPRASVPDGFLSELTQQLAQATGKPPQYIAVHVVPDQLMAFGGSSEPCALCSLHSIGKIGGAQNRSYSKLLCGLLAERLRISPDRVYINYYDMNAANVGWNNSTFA
Protocol: as §1

Structure (SMILES) | antiviral effects on pox viruses [1] | tau phosphorylation at Thr181 (AT270) ([2]; SH-SY5Y-tau-P301S cells) | tau phosphorylation at Thr231 (AT180) ([2]; SH-SY5Y-tau-P301S cells) | HSV-1-induced increase of tau phosphorylation (AT8) ([2]; SH-SY5Y-tau-P301S cells infected with HSV-1) | tau phosphorylation at Ser202 and Thr205 (AT8) ([2]; SH-SY5Y-tau-P301S cells) | effect on tau phosphorylation (AT8) in MIF-knockdown cells [2] | potency relative to PAV-802 in inhibiting tau phosphorylation [2] | CC50 at 24 h ([3]; CC50 (µM)) [µM] | CC50 at 24 h ([3]; CC50, MTT assay in Vero) [µM] | CC50 ([3]; CC50 (µM)) [µM] | elution of CUTA from PAV-617 resins by free compound [4] | IC50 [5] [nM] | IC50 ([5]; read-out: IC50, HSV-1 replication, in-cell ELISA) [nM] | potency relative to PAV-802 in inhibiting HSV-1 replication [5] | fraction unbound [6] | elution of MIF from PAV-617 resins by free compound [7]
CCc1cc(N2CCCC2)cc2[s+]c3cc(N4CCCC4)cc(C)c3nc12.[I-] [PAV-174, 3,7-Di(pyrrolidine-1-yl) 1-ethyl-9-methyl-phenothiazin-5-ium iodide] | antiviral effects | only at higher concentrations | dose-dependent reduction | absent | reduced tau phosphorylation | absent | around 2 logs | 1.2 | 1.12 | 1.16 | eluted | 20 | 21 | around 2 logs | 0.001 | eluted
[I-].c1cc2nc3ccc(N4CCCC4)cc3[s+]c2cc1N1CCCC1 [PAV-617, 3,7-Di(pyrrolidine-1-yl)phenothiazine-5-ium iodide] | antiviral effects |  |  |  | reduced tau phosphorylati on ly in control | bu t no t in MIF-knockdown | retained that enhanced activity |  |  | 20.1 | eluted | 220 |  | retained that enhanced activity | 0.088 | eluted
